From US11021435B2, “Serotonin receptor-targeting compounds and methods” (priority 2014, dated 2021)
Entries after “also recorded” stand apart in the source; their conditions may differ.

Tests used:
mouse 5-HT2A receptor = target: T1, mouse 5-HT2A receptor (Mus musculus, UniProt P35363); experiment: Binding affinity, HEK293 cells transiently expressing mouse 5-HT2A; conditions: for Ki: mouse, mean (SEM), read-out: Affinity Ki m5-HT2A
T1 construct: expressed in transfected cells; host or cells: HEK293, transient
T1 sequence (P35363 whole entry): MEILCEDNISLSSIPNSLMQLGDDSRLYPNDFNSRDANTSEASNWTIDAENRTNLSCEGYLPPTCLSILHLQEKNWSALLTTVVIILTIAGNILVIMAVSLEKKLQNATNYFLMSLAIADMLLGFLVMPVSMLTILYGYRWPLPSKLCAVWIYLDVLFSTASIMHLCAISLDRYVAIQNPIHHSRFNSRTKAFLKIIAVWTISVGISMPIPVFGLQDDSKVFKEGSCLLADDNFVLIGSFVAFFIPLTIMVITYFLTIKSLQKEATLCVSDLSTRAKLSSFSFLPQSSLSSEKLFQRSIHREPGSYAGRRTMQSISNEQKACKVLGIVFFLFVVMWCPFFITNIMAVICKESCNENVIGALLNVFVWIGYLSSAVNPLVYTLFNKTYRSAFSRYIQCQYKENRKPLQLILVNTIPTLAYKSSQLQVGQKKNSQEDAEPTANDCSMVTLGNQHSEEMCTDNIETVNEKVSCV

5-HT2A [1] = target: T2, 5-HT2A (Homo sapiens, UniProt P28223); experiment: Functional assay at 5-HT2A, relative to 5-HT; assay type: cell-based; design: expressed in transfected cells; host or cells: HEK293, transient; conditions: for Functional activity at 5-HT2A, in words: no activation stated up to 100 μM
T2 sequence (P28223 whole entry): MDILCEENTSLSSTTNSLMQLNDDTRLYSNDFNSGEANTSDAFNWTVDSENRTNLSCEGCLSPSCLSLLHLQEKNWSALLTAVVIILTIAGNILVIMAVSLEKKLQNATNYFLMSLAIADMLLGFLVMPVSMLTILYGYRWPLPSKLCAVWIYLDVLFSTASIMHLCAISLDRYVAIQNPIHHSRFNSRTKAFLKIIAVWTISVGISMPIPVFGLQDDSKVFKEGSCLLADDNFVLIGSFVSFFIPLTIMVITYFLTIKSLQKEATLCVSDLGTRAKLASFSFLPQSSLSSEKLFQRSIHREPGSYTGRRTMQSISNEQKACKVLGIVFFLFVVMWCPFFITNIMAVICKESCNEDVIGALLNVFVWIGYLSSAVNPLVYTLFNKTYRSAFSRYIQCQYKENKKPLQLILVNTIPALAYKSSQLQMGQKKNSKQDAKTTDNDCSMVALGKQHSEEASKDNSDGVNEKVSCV

5-HT2B [2] = target: T3, 5-HT2B (Homo sapiens, UniProt P41595); experiment: Functional assay at 5-HT2B, relative to 5-HT; assay type: cell-based; design: expressed in transfected cells; host or cells: HEK293, transient; conditions: for Functional activity at 5-HT2B, in words: up to 100 μM
T3 sequence (P41595 whole entry): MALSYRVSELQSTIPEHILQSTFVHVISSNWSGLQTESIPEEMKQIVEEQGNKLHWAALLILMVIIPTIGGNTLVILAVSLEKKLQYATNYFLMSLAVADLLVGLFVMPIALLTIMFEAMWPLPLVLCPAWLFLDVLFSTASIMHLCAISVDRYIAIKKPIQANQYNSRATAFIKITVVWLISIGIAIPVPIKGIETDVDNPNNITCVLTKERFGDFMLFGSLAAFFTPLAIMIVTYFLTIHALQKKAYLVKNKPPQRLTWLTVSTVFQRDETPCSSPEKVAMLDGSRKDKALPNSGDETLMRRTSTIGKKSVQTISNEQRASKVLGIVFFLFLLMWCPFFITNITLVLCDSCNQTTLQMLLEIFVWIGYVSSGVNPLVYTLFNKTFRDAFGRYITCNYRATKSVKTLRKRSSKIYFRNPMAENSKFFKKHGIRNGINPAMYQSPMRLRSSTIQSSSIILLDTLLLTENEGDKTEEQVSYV

[3] = target: T4, 5-HT2C receptors (5-HT2C-INI) (Homo sapiens, UniProt P28335); experiment: Binding affinity, HEK293 cells transiently over-expressing human 5-HT2C; conditions: human 5-HT2C-INI
T4 construct: expressed in transfected cells; host or cells: HEK293, transient
T4 sequence (P28335 33-458): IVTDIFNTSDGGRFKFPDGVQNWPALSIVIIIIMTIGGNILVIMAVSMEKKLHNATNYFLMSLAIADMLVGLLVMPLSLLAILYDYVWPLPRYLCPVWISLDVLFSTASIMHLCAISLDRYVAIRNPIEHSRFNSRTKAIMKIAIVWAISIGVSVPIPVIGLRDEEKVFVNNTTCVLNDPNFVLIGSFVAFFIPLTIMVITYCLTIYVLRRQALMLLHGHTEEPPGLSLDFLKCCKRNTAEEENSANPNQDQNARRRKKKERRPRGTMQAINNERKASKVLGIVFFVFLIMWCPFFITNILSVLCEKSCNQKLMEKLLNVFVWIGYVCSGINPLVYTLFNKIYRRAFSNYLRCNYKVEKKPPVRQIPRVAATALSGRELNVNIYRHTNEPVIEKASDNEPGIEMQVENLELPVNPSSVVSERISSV

5-HT2C = target: T5, 5-HT2C (Homo sapiens, UniProt P28335); experiment: Functional assay at 5-HT2C, relative to 5-HT; assay type: cell-based; design: expressed in transfected cells; host or cells: HEK293, transient
T5 sequence (P28335 33-458): T4 sequence (P28335 33-458)

[4] = target: T6, human 5-HT7 receptors (5-HT7a) (Homo sapiens, UniProt P34969); experiment: Radioligand competition binding ([3H]5-CT), HEK293 cells stably expressing human 5-HT7 receptors; conditions: for Ki: human 5-HT7a, mean (SEM), at least three independent experiments, read-out: Affinity Ki 5-HT7
T6 construct: expressed in transfected cells
T6 sequence (P34969 1-445 isoform P34969-2): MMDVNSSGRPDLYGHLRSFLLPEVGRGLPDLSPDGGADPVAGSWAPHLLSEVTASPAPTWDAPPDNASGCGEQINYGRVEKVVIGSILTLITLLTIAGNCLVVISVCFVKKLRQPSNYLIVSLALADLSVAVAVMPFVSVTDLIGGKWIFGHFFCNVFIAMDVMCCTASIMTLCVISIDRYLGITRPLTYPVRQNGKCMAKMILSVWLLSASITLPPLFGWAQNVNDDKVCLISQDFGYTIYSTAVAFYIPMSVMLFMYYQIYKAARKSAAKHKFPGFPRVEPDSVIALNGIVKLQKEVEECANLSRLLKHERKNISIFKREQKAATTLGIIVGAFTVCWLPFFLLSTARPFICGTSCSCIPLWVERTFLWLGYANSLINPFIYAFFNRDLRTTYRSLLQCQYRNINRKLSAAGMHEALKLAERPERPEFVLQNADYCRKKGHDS
Text: FIGS. 4A-4C show the effects of 5-FPT are stereospecific. […] Data are expressed as the mean±SEM.

[5] = target: T7, mouse 5-HT2C receptor (m5-HT2C-VNV) (Mus musculus, UniProt P34968, I157V/I161V); experiment: Binding affinity, HEK293 cells transiently expressing mouse 5-HT2C; conditions: for Ki: mouse m5-HT2C-VNV
T7 construct: expressed in transfected cells; host or cells: HEK293, transient
T7 sequence (P34968 33-459 I157V/I161V): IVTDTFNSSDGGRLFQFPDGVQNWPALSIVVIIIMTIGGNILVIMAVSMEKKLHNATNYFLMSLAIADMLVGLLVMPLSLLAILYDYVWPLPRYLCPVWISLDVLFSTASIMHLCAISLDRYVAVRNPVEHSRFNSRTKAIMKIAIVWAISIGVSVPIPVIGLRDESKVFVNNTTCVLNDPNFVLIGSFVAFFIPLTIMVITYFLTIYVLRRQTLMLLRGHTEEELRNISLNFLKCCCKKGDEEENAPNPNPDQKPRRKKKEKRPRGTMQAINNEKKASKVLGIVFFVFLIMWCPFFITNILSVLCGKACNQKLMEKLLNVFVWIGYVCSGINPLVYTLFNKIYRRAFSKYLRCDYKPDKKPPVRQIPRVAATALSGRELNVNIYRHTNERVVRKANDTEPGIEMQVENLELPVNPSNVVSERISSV

5-HT2B [6] = target: T3, 5-HT2B; experiment: Binding affinity, HEK293 cells transiently over-expressing human 5-HT2B; design: expressed in transfected cells; host or cells: HEK293, transient; conditions: mean (SEM)
adrenergic α1B receptor = target: T8, adrenergic α1B receptor (Homo sapiens, UniProt P35368); experiment: Off-target binding affinity, adrenergic α1B
T8 construct: expressed in transfected cells; host or cells: HEK293, transient
T8 sequence (P35368 1-520): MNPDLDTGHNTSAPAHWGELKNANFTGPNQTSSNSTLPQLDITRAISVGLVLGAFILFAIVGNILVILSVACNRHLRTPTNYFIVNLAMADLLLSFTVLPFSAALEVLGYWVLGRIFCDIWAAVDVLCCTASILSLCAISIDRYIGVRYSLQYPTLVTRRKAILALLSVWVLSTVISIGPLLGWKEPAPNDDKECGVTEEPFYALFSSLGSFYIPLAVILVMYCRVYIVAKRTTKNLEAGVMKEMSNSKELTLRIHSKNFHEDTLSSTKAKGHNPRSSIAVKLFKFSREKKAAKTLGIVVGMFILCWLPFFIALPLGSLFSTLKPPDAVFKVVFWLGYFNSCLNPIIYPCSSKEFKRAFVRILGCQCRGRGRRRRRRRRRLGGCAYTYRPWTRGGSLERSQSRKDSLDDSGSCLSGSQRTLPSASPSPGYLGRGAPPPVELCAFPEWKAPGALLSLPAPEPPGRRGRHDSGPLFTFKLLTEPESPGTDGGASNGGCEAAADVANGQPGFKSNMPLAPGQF

5-HT2A [7] = target: T2, 5-HT2A; experiment: Binding affinity, HEK293 cells transiently over-expressing human 5-HT2A; design: expressed in transfected cells; host or cells: HEK293, transient; conditions: for Ki: human, mean (SEM)
C57BI/6J mice = experiment: DOI-elicited head-twitch response (HTR) in C57BI/6J mice; conditions: for DOI-elicited HTR: C57BI/6J mice, 5-FPT up to 5.6 mg/kg, AS-19 10 mg/kg, DPAT 0.5 mg/kg
Text: The 5-HT2A receptor is a predominant 5-HT receptor in the cortex, and serves important excitation modulation functions on glutamate pyramidal and GABA neurons.

human 5-HT7 receptors = target: T9, human 5-HT7 receptors (Homo sapiens, UniProt P34969); experiment: Functional assay, 5-HT7 Gs-cAMP signaling, relative to AS-19; assay type: cell-based; conditions: for Functional activity at 5-HT7, in words / EC50: Gs-cAMP signaling
T9 construct: expressed in transfected cells
T9 sequence (P34969 1-445 isoform P34969-2): as the sequence (P34969 1-445 isoform P34969-2) above

histamine H1 receptor = target: T10, histamine H1 receptor (Homo sapiens, UniProt P35367); experiment: Off-target binding affinity, histamine H1
T10 construct: expressed in transfected cells; host or cells: HEK293, transient
T10 sequence (P35367 whole entry): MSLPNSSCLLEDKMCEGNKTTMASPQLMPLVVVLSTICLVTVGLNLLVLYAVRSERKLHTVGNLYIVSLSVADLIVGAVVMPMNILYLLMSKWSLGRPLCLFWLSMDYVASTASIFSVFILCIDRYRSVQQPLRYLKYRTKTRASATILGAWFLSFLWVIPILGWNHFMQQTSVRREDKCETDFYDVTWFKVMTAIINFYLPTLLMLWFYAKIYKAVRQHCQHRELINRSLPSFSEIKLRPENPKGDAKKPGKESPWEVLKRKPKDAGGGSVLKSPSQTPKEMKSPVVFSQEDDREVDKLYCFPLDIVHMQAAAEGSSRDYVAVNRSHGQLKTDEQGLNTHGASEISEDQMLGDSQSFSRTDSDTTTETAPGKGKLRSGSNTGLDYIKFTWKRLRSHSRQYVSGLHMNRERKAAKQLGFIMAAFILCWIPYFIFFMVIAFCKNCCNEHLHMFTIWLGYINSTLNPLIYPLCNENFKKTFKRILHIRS

[8] = % of maximal response relative to 5-HT, mean (SEM)
[9] = % of maximal response relative to AS-19, mean (SEM)

**Q.** With `CN(C)C1CCc2c(cccc2-c2ccccc2F)C1` (single isomer, unassigned; (+)) [(+)-5-FPT, 5-(2′-fluorophenyl)-N,N-dimethyl-1,2,3,4-tetrahydronaphthalen-2-amine] as the molecule, how does the Ki (mouse 5-HT2A receptor) read?
**A.** The Ki was 632 nM.

**Q.** And the Emax (5-HT2A [1]; [8])?
**A.** The Emax was 39%.

**Q.** What about the EC50 (5-HT2A [1]; mean (SEM)) of the same molecule?
**A.** The EC50 was 3530 nM.

**Q.** And the “Functional activity at 5-HT2A, in words” value (5-HT2A [1])?
**A.** Its value is “very low potency, partial agonist”.

**Q.** What about the “EC50 5-HT2B” value (5-HT2B [2]; Inactive = no activation up to 100 μM) of the same molecule?
**A.** Its value is “Inactive”.

**Q.** And the “EMAX 5-HT2B” value (5-HT2B [2]; relative to 5-HT, Inactive = no activation up to 100 μM)?
**A.** Its value is “Inactive”.

**Q.** And the “Functional activity at 5-HT2B, in words” value (5-HT2B [2])?
**A.** The value was “devoid of 5-HT2B activity”.

**Q.** And the Ki ([3]; mean (SEM))?
**A.** The Ki was 0.269 µM.

**Q.** And the “Functional activity at 5-HT2C, in words” value (5-HT2C)?
**A.** Its value is “nearly full-efficacy agonist”.

**Q.** What about the Emax (5-HT2C; [8]) of the same molecule?
**A.** Its Emax is 87%.

**Q.** What about the EC50 (5-HT2C; mean (SEM)) of the same molecule?
**A.** Its EC50 is 230 nM.

**Q.** And the Ki [4]?
**A.** Its Ki is 5.8 nM.

**Q.** And the “5-HT7 affinity, (+)-enantiomer more potent than (−)-enantiomer” value ([4]; ratio of Ki values)?
**A.** Its value is “about 80 times”.

**Q.** What about the “Mouse 5-HT2C versus human 5-HT2C receptor affinity” value [5] of the same molecule?
**A.** Its value is ~2.5 times.

**Q.** What about the Ki ([5]; mean (SEM)) of the same molecule?
**A.** The Ki was 0.644 µM.

**Q.** What about the Ki (5-HT2B [6]) of the same molecule?
**A.** Its Ki is 60 nM.

**Q.** And the Ki (adrenergic α1B receptor)?
**A.** Its Ki is > 10000 nM.

**Q.** What about the “Affinity at 5-HT2A receptors, in words” value (5-HT2A [7]) of the same molecule?
**A.** The value was “very low”.

**Q.** What about the Ki (5-HT2A [7]) of the same molecule?
**A.** Its Ki is 886 nM.

**Q.** And the “DOI-elicited HTR, compound given 120 min (2 hrs) before testing” value (C57BI/6J mice; 5.6 mg/kg, DOI 1 mg/kg)?
**A.** Its value is “remained significant; also recorded: retains efficacy”.

**Q.** What about the “DOI-elicited HTR, compound given 180 min (3 hrs) before testing” value (C57BI/6J mice; 5.6 mg/kg, DOI 1 mg/kg) of the same molecule?
**A.** The value was “did not block the DOI HTR”.

**Q.** And the “DOI-elicited HTR” value (C57BI/6J mice; DOI 1 mg/kg)?
**A.** Its value is “dose-dependently attenuated the DOI-elicited HTR; also recorded: significantly attenuated the DOI HTR; also recorded: dose-dependently blocks”.

**Q.** And the “DOI-elicited HTR after oral administration” value (C57BI/6J mice; oral gavage 3 mg/kg 10 min prior to subcutaneous 1 mg/kg DOI)?
**A.** The value was “significantly attenuated the DOI HTR; also recorded: attenuates the HTR”.

**Q.** What about the Emax (human 5-HT7 receptors; [9]) of the same molecule?
**A.** Its Emax is 33%.

**Q.** And the “Functional activity at 5-HT7, in words” value (human 5-HT7 receptors)?
**A.** Its value is “partial agonist”.

**Q.** And the EC50 (human 5-HT7 receptors; mean (SEM))?
**A.** The EC50 was 34 nM.

**Q.** What about the Ki (histamine H1 receptor) of the same molecule?
**A.** Its Ki is > 1000 nM.

**Q.** How did the “Higher affinity than (+)-5-FPT at mouse 5-HT2A receptors” value (mouse 5-HT2A receptor) turn out when `CN(C)C1CCc2c(cccc2-c2ccccc2F)C1` (single isomer, unassigned; (-)) [(−)-5-FPT, 5-(2′-fluorophenyl)-N,N-dimethyl-1,2,3,4-tetrahydronaphthalen-2-amine] was run?
**A.** The value was ~4 fold.

**Q.** And the Ki (mouse 5-HT2A receptor)?
**A.** The Ki was 147 nM.

**Q.** What about the “Functional activity at 5-HT2A, in words” value (5-HT2A [1]) of the same molecule?
**A.** The value was “did not activate”.

**Q.** What about the “Functional activity at 5-HT2B, in words” value (5-HT2B [2]) of the same molecule?
**A.** The value was “did not activate”.

**Q.** What about the Ki ([3]; bound given in μM) of the same molecule?
**A.** Its Ki is > 1 µM.

**Q.** And the “Functional activity at 5-HT2C, in words” value (5-HT2C)?
**A.** The value was “low-potency”.

**Q.** And the Ki [4]?
**A.** The Ki was 460 nM.

**Q.** What about the Ki ([5]; bound given in μM) of the same molecule?
**A.** The Ki was > 1 µM.

**Q.** What about the Ki (5-HT2B [6]) of the same molecule?
**A.** The Ki was 684 nM.

**Q.** What about the Ki (adrenergic α1B receptor) of the same molecule?
**A.** The Ki was > 10000 nM.

**Q.** And the “Higher affinity than (+)-5-FPT at human 5-HT2A receptors” value (5-HT2A [7])?
**A.** The value was ~8 fold.

**Q.** And the Ki (5-HT2A [7])?
**A.** Its Ki is 119 nM.

**Q.** What about the “DOI-elicited HTR” value (C57BI/6J mice; DOI 1 mg/kg) of the same molecule?
**A.** The value was “substantially less efficacious than (+)-5-FPT”.

**Q.** And the “EMAX 5-HT7” value (human 5-HT7 receptors; [9])?
**A.** Its value is 29%.

**Q.** What about the “Functional activity at 5-HT7, in words” value (human 5-HT7 receptors) of the same molecule?
**A.** Its value is “partial agonism; also recorded: low-potency”.

**Q.** What about the EC50 (human 5-HT7 receptors; mean (SEM)) of the same molecule?
**A.** The EC50 was 378 nM.

**Q.** And the “5-HT7 functional potency, (−)-enantiomer less potent than (+)-isomer” value (human 5-HT7 receptors; ratio of EC50 values)?
**A.** The value was “about 11 times”.

**Q.** What about the Ki (histamine H1 receptor) of the same molecule?
**A.** The Ki was > 1000 nM.
